Assay results: US12077503B2, “Substituted cyclic amides and their use as herbicides” (FMC CORPORATION, priority 2015, dated 2024)
Like-named read-outs stand apart in the source and are kept apart here.

Assays:
Format in all cases: in vivo
[1] = tested on: barnyardgrass (Echinochloa crus-galli); assay: Test B flooded paddy test; settings: Echinochloa crus-galli, Flood, 250 g ai/ha
How it was run: (§1)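 Plants at 2-leaf stage flooded to 3 cm above soil, with compounds applied directly to paddy water and that depth maintained. Plants kept in greenhouse 13–15 d. Visual rating versus controls on a 0 (no effect) to 100 (complete control) scale.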

[2] = tested on: sedge, umbrella (small-flower umbrella sedge, Cyperus difformis); assay: Test B flooded paddy test; settings: Cyperus difformis, Flood, 250 g ai/ha
How it was run: as §1

[3] = tested on: ducksalad (Heteranthera limosa); assay: Test B flooded paddy test; settings: Heteranthera limosa, Flood, 250 g ai/ha
How it was run: as §1

[4] = tested on: rice (Oryra sativa); assay: Test B flooded paddy test; settings: Oryza sativa, Flood, 250 g ai/ha
How it was run: as §1

[5] = tested on: corn (Zea mays); assay: Test A postemergence; settings: Zea mays, post-emergence, 240 h; for plant injury at 125 g/ha / Corn plant response rating (crop injury, 0 = no effect, 100 = complete kill) at 500 g/ha: Postemergence; for plant injury at 125 g/ha: visual rating about 10 d after treatment, read-out: Corn plant response rating (0 to 100 scale); for Corn plant response rating (crop injury, 0 = no effect, 100 = complete kill) at 500 g/ha: 500 g ai/ha, visual injury, approx. 10 d
How it was run: (§2)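 Greenhouse, ~10 d after spray; visual injury vs untreated controls, 0 = no effect, 100 = complete control. Preemergence: directed soil spray over planted seeds. Postemergence: plants 2–10 cm, 1–2 leaf stage. Loam/sand blend. Compound in non-phytotoxic solvent with surfactant.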

[6] = tested on: pigweed (Amaranthus retroflexus); assay: Test A postemergence; settings: Amaranthus retroflexus, post-emergence, 240 h; for pest or weed control at 125 g/ha: 125 g ai/ha; for pest or weed control at 500 g/ha: 500 g ai/ha, visual injury, approx. 10 d
How it was run: as §2

[7] = tested on: ryegrass, Italian (Italian ryegrass, Lolium multiflorum); assay: Test A postemergence; settings: Lolium multiflorum, post-emergence, 240 h, 125 g ai/ha, postemergence; visual injury after approximately 10 d; 0 to 100 scale (0 no effect, 100 complete control); read-out: Plant response rating, Ryegrass, Italian
How it was run: as §2

[8] = tested on: barnyardgrass (Echinochloa crus-galli); assay: Test A preemergence; settings: Echinochloa crus-galli, pre-emergence, 240 h; for pest or weed control at 125 g/ha: 125 g ai/ha; for pest or weed control at 500 g/ha: 500 g ai/ha
How it was run: as §2

[9] = tested on: ragweed (common ragweed, Ambrosia elatior); assay: Test A preemergence; settings: Ambrosia artemisiifolia, pre-emergence, 240 h
How it was run: as §2

[10] = tested on: giant foxtail (Setaria faberii); assay: Test A preemergence; settings: Setaria faberi, pre-emergence, 240 h; for pest or weed control at 125 g/ha: 125 g ai/ha; for pest or weed control at 500 g/ha: 500 g ai/ha
How it was run: as §2

[11] = tested on: pigweed (Amaranthus retroflexus); assay: Test A preemergence; settings: Amaranthus retroflexus, pre-emergence, 240 h; for pest or weed control at 125 g/ha: 125 g ai/ha; for pest or weed control at 500 g/ha: 500 g ai/ha
[12] = tested on: Kochia (Kochia scoparia); assay: Test A preemergence; settings: Bassia scoparia, pre-emergence, 240 h
How it was run: as §2

[13] = tested on: ryegrass, Italian (Italian ryegrass, Lolium multiflorum); assay: Test A preemergence; settings: Lolium multiflorum, pre-emergence, 240 h
How it was run: as §2

[14] = tested on: wheat (Triticum aestivum); assay: Test A postemergence; settings: Triticum aestivum, post-emergence, 240 h, Postemergence; for plant injury at 125 g/ha: 125 g ai/ha, visual rating about 10 d after treatment, read-out: Wheat plant response rating (0 to 100 scale); for plant injury at 500 g/ha: 500 g ai/ha, visual injury, 0 to 100 scale (0 no effect, 100 complete control), approx. 10 d, read-out: Plant response rating, Wheat
How it was run: as §2

[15] = 0 to 100 scale (0 no effect, 100 complete control)
[16] = Postemergence, visual rating about 10 d after treatment, read-out: Pigweed plant response rating (0 to 100 scale)
[17] = Postemergence, 0 to 100 scale (0 no effect, 100 complete control), read-out: Plant response rating, Pigweed
[18] = preemergence, 0 to 100 scale (0 no effect, 100 complete control), read-out: Plant response rating, Barnyardgrass
[19] = Preemergence, 0 to 100 scale (0 no effect, 100 complete control), read-out: Plant response rating, Barnyardgrass
[20] = preemergence, 0 to 100 scale (0 no effect, 100 complete control), read-out: Plant response rating, Foxtail, Giant
[21] = Preemergence, 0 to 100 scale (0 no effect, 100 complete control), read-out: Plant response rating, Foxtail, Giant
[22] = preemergence, 0 to 100 scale (0 no effect, 100 complete control), read-out: Plant response rating, Pigweed
[23] = Preemergence, 0 to 100 scale (0 no effect, 100 complete control), read-out: Plant response rating, Pigweed

## CN1C[C@H](c2ccc(OC(F)F)cc2)[C@@H](C(=O)Nc2ccccc2S(C)(=O)=O)C1=O [Compound 788]
[1]; scale of 0 to 100 where 0 is no effect and 100 is complete control, read-out: Barnyardgrass plant response rating
  pest or weed control at 250 g/ha: 20%
[2]; scale of 0 to 100 where 0 is no effect and 100 is complete control, read-out: Sedge, Umbrella plant response rating
  pest or weed control at 250 g/ha: 0%
[3]; scale of 0 to 100 where 0 is no effect and 100 is complete control, read-out: Ducksalad plant response rating
  pest or weed control at 250 g/ha: 60%
[4]; scale of 0 to 100 where 0 is no effect and 100 is complete control, read-out: Rice plant response rating
  pest or weed control at 250 g/ha: 0%
[5]; 125 g ai/ha, postemergence, visual injury after approximately 10 d, 0 to 100 scale (0 no effect, 100 complete control)
  Corn plant response rating (crop injury, 0 = no effect, 100 = complete kill) at 125 g/ha: 20%
[6]; postemergence, visual injury after approximately 10 d, 0 to 100 scale (0 no effect, 100 complete control), read-out: Plant response rating, Pigweed
  pest or weed control at 125 g/ha: 60%
[7]
  pest or weed control at 125 g/ha: 20%
[8]; preemergence, visual rating after approx. 10 d, 0 to 100 scale where 0 is no effect and 100 is complete control, read-out: Plant response rating, Barnyardgrass
  pest or weed control at 125 g/ha: 90%
[8]; Preemergence, visual injury vs untreated controls after approximately 10 d, read-out: Barnyardgrass plant response rating (0 to 100 scale where 0 is no effect and 100 is complete control)
  pest or weed control at 500 g/ha: 90%
[9]; 125 g ai/ha, preemergence, visual rating after approx. 10 d, 0 to 100 scale where 0 is no effect and 100 is complete control, read-out: Plant response rating, Ragweed
  pest or weed control at 125 g/ha: 80%
[9]; 500 g ai/ha, Preemergence, visual injury vs untreated controls after approximately 10 d, read-out: Ragweed plant response rating (0 to 100 scale where 0 is no effect and 100 is complete control)
  pest or weed control at 500 g/ha: 90%
[10]; preemergence, visual rating after approx. 10 d, 0 to 100 scale where 0 is no effect and 100 is complete control, read-out: Plant response rating, Foxtail, Giant
  pest or weed control at 125 g/ha: 90%
[10]; Preemergence, visual injury vs untreated controls after approximately 10 d, read-out: Foxtail, Giant plant response rating (0 to 100 scale where 0 is no effect and 100 is complete control)
  pest or weed control at 500 g/ha: 100%
[11]; preemergence, visual rating after approx. 10 d, 0 to 100 scale where 0 is no effect and 100 is complete control, read-out: Plant response rating, Pigweed
  pest or weed control at 125 g/ha: 80%
[11]; Preemergence, visual injury vs untreated controls after approximately 10 d, read-out: Pigweed plant response rating (0 to 100 scale where 0 is no effect and 100 is complete control)
  pest or weed control at 500 g/ha: 90%
[12]; 125 g ai/ha, preemergence, visual rating after approx. 10 d, 0 to 100 scale where 0 is no effect and 100 is complete control, read-out: Plant response rating, Kochia
  pest or weed control at 125 g/ha: 80%
[12]; 500 g ai/ha, Preemergence, visual injury vs untreated controls after approximately 10 d, read-out: Kochia plant response rating (0 to 100 scale where 0 is no effect and 100 is complete control)
  pest or weed control at 500 g/ha: 80%
[13]; 125 g ai/ha, preemergence, visual rating after approx. 10 d, 0 to 100 scale where 0 is no effect and 100 is complete control, read-out: Plant response rating, Ryegrass, Italian
  pest or weed control at 125 g/ha: 0%
[13]; 500 g ai/ha, Preemergence, visual injury vs untreated controls after approximately 10 d, read-out: Ryegrass, Italian plant response rating (0 to 100 scale where 0 is no effect and 100 is complete control)
  pest or weed control at 500 g/ha: 40%

## N#Cc1ccc(NC(=O)C2C(=O)NCC2c2ccccc2)cc1 (centres unmarked) [Compound 1355]
[5]; 125 g ai/ha
  plant injury at 125 g/ha: 0%
[5]; [15]
  Corn plant response rating (crop injury, 0 = no effect, 100 = complete kill) at 500 g/ha: 0%
[6]; [16]
  pest or weed control at 125 g/ha: 0%
[6]; [17]
  pest or weed control at 500 g/ha: 0%
[14]
  plant injury at 125 g/ha: 0%
  plant injury at 500 g/ha: 0%
[8]; [18]
  pest or weed control at 500 g/ha: 0%
[8]; [19]
  pest or weed control at 125 g/ha: 0%
[10]; [20]
  pest or weed control at 500 g/ha: 0%
[10]; [21]
  pest or weed control at 125 g/ha: 0%
[11]; [22]
  pest or weed control at 500 g/ha: 0%
[11]; [23]
  pest or weed control at 125 g/ha: 0%

## O=C1NCC(c2ccccc2)C1C(=O)Nc1cccnc1 (centres unmarked) [Compound 1356]
[5]; 125 g ai/ha
  plant injury at 125 g/ha: 0%
[5]; [15]
  Corn plant response rating (crop injury, 0 = no effect, 100 = complete kill) at 500 g/ha: 0%
[6]; [16]
  pest or weed control at 125 g/ha: 0%
[6]; [17]
  pest or weed control at 500 g/ha: 0%
[14]
  plant injury at 125 g/ha: 0%
  plant injury at 500 g/ha: 0%
[8]; [18]
  pest or weed control at 500 g/ha: 0%
[8]; [19]
  pest or weed control at 125 g/ha: 0%
[10]; [20]
  pest or weed control at 500 g/ha: 0%
[10]; [21]
  pest or weed control at 125 g/ha: 0%
[11]; [22]
  pest or weed control at 500 g/ha: 0%
[11]; [23]
  pest or weed control at 125 g/ha: 0%

## O=C1NCC(c2ccccc2)C1C(=O)Nc1ccccc1Oc1ccccc1 (centres unmarked) [Compound 1357]
[5]; 125 g ai/ha
  plant injury at 125 g/ha: 0%
[5]; [15]
  Corn plant response rating (crop injury, 0 = no effect, 100 = complete kill) at 500 g/ha: 0%
[6]; [16]
  pest or weed control at 125 g/ha: 0%
[6]; [17]
  pest or weed control at 500 g/ha: 0%
[14]
  plant injury at 125 g/ha: 0%
  plant injury at 500 g/ha: 0%
[8]; [18]
  pest or weed control at 500 g/ha: 0%
[8]; [19]
  pest or weed control at 125 g/ha: 0%
[10]; [20]
  pest or weed control at 500 g/ha: 0%
[10]; [21]
  pest or weed control at 125 g/ha: 0%
[11]; [22]
  pest or weed control at 500 g/ha: 0%
[11]; [23]
  pest or weed control at 125 g/ha: 0%

## O=C1NCC(c2ccccc2)C1C(=O)Nc1ccccc1 (centres unmarked) [Compound 1358]
[1]; 360 h, visually evaluated after 13 to 15 d, read-out: Plant response rating, Barnyardgrass (0 to 100 scale where 0 is no effect and 100 is complete control)
  pest or weed control at 250 g/ha: 0%
[2]; 360 h, visually evaluated after 13 to 15 d, read-out: Plant response rating, Sedge, Umbrella (0 to 100 scale where 0 is no effect and 100 is complete control)
  pest or weed control at 250 g/ha: 0%
[3]; 360 h, visually evaluated after 13 to 15 d, read-out: Plant response rating, Ducksalad (0 to 100 scale where 0 is no effect and 100 is complete control)
  pest or weed control at 250 g/ha: 0%
[4]; 360 h, visually evaluated after 13 to 15 d, read-out: Plant response rating, Rice (0 to 100 scale where 0 is no effect and 100 is complete control)
  pest or weed control at 250 g/ha: 0%
[5]; 125 g ai/ha
  plant injury at 125 g/ha: 0%
[5]; [15]
  Corn plant response rating (crop injury, 0 = no effect, 100 = complete kill) at 500 g/ha: 0%
[6]; [16]
  pest or weed control at 125 g/ha: 0%
[6]; [17]
  pest or weed control at 500 g/ha: 0%
[14]
  plant injury at 125 g/ha: 0%
  plant injury at 500 g/ha: 0%
[8]; [18]
  pest or weed control at 500 g/ha: 0%
[8]; [19]
  pest or weed control at 125 g/ha: 0%
[10]; [20]
  pest or weed control at 500 g/ha: 0%
[10]; [21]
  pest or weed control at 125 g/ha: 0%
[11]; [22]
  pest or weed control at 500 g/ha: 0%
[11]; [23]
  pest or weed control at 125 g/ha: 0%
